{"source": "patent US20210178012A1", "about": "“FOAM WOUND DRESSING COMPRISING AN ANTISEPTIC” (Coloplast A/S, priority 2018, published 2021)", "key": {"[1]": {"assay": "Octenidine in foam, no surfactant: extraction from impregnated hydrophilic polyurethane foam discs", "type": "physicochemical", "settings": "plain foam, 24 h extraction", "description": "Discs of hydrophilic polyurethane foam were impregnated by applying a known volume of octenidine-containing solution to the surface of the foam and letting it soak into the foam matrix in a liquid:foam ratio which allowed the foam to be saturated with liquid. Afterwards, the impregnated foam was dried at RT overnight. The dried foam disc was immersed in the extraction media for 24 h and the extracted octenidine concentration was determined by UV at 285 nm"}, "[2]": {"assay": "Previous zone of inhibition studies (not shown)", "type": "cell-based", "settings": "pure octenidine impregnated into foam without surfactants"}, "[3]": {"settings": "0.1 w % OCT in impregnation solution"}, "[4]": {"settings": "0.5 w % OCT in impregnation solution"}, "[5]": {"settings": "1.0 w % OCT in impregnation solution"}}, "data": [{"compound": "CCCCCCCCN=c1ccn(CCCCCCCCCCn2ccc(=NCCCCCCCC)cc2)cc1", "note": "[Octenidine, octenidine]", "values": [{"measurement": "Release % phosphate buffer (23 mM)", "setting": "[1]; [3]", "result": 7, "unit": "%"}, {"measurement": "Release % water", "setting": "[1]; [3]", "result": 5, "unit": "%"}, {"measurement": "Release % phosphate buffer (23 mM)", "setting": "[1]; [4]", "result": 13, "unit": "%"}, {"measurement": "Release % water", "setting": "[1]; [4]", "result": 1.5, "unit": "%"}, {"measurement": "Release % phosphate buffer (23 mM)", "setting": "[1]; [5]", "result": 20, "unit": "%"}, {"measurement": "Release % water", "setting": "[1]; [5]", "result": 1.5, "unit": "%"}, {"measurement": "zones in a zone of inhibition study", "setting": "[2]", "result": "small or no zones"}]}]}
